Reference: the CheMixHub viscosity set

Experiment: xn = mol fraction of the nth substance listed

COCCOCCOCCOC + CCCOC(C)=O
viscosity [mPa·s], 101.3 kPa
Conditions | 298.15 K | 308.15 K | 318.15 K
x1 = 0.005 | 0.558 | 0.492 | 0.442
x1 = 0.0351 | 0.589 | 0.517 | 0.465
x1 = 0.0513 | 0.607 | 0.532 | 0.476
x1 = 0.0859 | 0.643 | 0.562 | 0.503
x1 = 0.1416 | 0.709 | 0.613 | 0.544
x1 = 0.1846 | 0.757 | 0.652 | 0.577
x1 = 0.2654 | 0.857 | 0.734 | 0.647
x1 = 0.3185 | 0.922 | 0.785 | 0.683
x1 = 0.3767 | 1.009 | 0.848 | 0.733
x1 = 0.426 | 1.078 | 0.902 | 0.784
x1 = 0.5278 | 1.224 | 1.019 | 0.862
x1 = 0.5868 | 1.313 | 1.086 | 0.921
x1 = 0.627 | 1.388 | 1.141 | –
x1 = 0.6327 | – | – | 0.964
x1 = 0.69 | 1.486 | 1.22 | 1.025
x1 = 0.7402 | 1.567 | 1.282 | 1.077
x1 = 0.8031 | 1.67 | 1.365 | 1.137
x1 = 0.8451 | 1.744 | 1.427 | 1.177
x1 = 0.8711 | 1.784 | 1.472 | 1.207
x1 = 0.9467 | 1.9 | 1.542 | 1.276
x1 = 0.9582 | 1.91 | 1.552 | 1.285
x1 = 0.979 | 1.939 | 1.513 | 1.302

CCCC[n+]1ccn(C)c1.[Cl][Al-]([Cl])([Cl])[Cl] + Cc1ccccc1
101 kPa, x2 = 0.37
Conditions | viscosity [mPa·s]
293.15 K | 18.2
298.15 K | 16.6
303.15 K | 14.6
308.15 K | 13.1
313.15 K | 11.6
318.15 K | 10.5
323.15 K | 9.6

Nc1ccccc1 + CC(C)=O
298.15 K, 101 kPa
Conditions | viscosity [mPa·s]
x1 = 0.0833 | 0.3644
x1 = 0.1692 | 0.4238
x1 = 0.2591 | 0.5074
x1 = 0.3523 | 0.6194
x1 = 0.4492 | 0.7717
x1 = 0.5502 | 0.9752
x1 = 0.6556 | 1.252
x1 = 0.7653 | 1.679
x1 = 0.8805 | 2.259

CCNCC + O
297.65 K, 101.33 kPa
Conditions | viscosity [mPa·s]
x1 = 0.0033 | 0.928
x1 = 0.0087 | 1.051
x1 = 0.0165 | 1.24
x1 = 0.023 | 1.405
x1 = 0.0271 | 1.508
x1 = 0.0342 | 1.691
x1 = 0.0458 | 1.985
x1 = 0.0592 | 2.305
x1 = 0.0733 | 2.604
x1 = 0.0885 | 2.863
x1 = 0.104 | 3.037
x1 = 0.1203 | 3.096
x1 = 0.1385 | 3.121
